Assay results as given in patent US20260308172A1, “TRICYCLIC COMPOUNDS FOR TREATMENT OF BACTERIAL INFECTIONS” (priority 2023, published 2026).
Values after ≈ are worked out from the molar mass of the structure shown.

Columns and labels:
[1] = tested on: Escherichia coli ATCC 25922; experiment: Minimal Inhibitory Concentration (MIC) assay, Escherichia coli ATCC 25922; assay type: cell-based; details: ATCC25922, 20 h, read-out: MIC Escherichia coli ATCC25922
Procedure: (§1) The antibacterial activity of the compounds of the present invention was evaluated against the commonly used quality control strain Escherichia coli ATCC 25922 and the rifampin-resistant mutant strain Klebsiella pneumonia ATCC 43816. Both were originally derived from human clinical samples and are available from ATCC (American Type Culture Collection). The in vitro potency of compounds to inhibit Escherichia coli (ATCC 25922) and Klebsiella pneumonia (ATCC 43816) growth was assessed by the MIC (Minimal Inhibitory Concentration) broth dilution method. Specifically compound dilutions were prepared from 10 mM DMSO stock solutions as follows: i) serial 2-fold dilution in 20 μL DMSO were prepared in a master plate (Greiner, Cat No: 651201), ii) 180 μL sterile distilled water was added to each aliquot and iii) 10 μL diluted compounds were transferred into a new assay plate (Costar, 3599).
(§2) Vials of each test microorganisms were maintained frozen in the vapor phase of a liquid nitrogen freezer. Single-use frozen vials of the two strains Escherichia coli ATCC 25922 (KWIKSTIK, 0335K) and Klebsiella pneumonia ATCC 43816, with predetermined CFU/mL, were taken out from the freezer, thawed at room temperature, and diluted in Cation-Adjusted Mueller Hinton Broth (CAMHB) to achieve a final inoculum of 5×10^5 CFU/mL. 90 μL bacteria containing broth was dispensed to the assay plate containing the pre-dispensed compound dilutions and mixed by pipetting 5 times.
(§3) Then the assay plates were incubated for 20 hours at 35° C. in ambient air. Following incubation, the MIC (μg/mL), the lowest concentration of drug that inhibits visible growth of the microorganism was read with the help of a magnification mirror and recorded.

[2] = tested on: Klebsiella pneumonia ATCC 43816; experiment: Minimal Inhibitory Concentration (MIC) assay, Klebsiella pneumonia ATCC 43816; assay type: cell-based; details: Klebsiella pneumoniae, ATCC43816, 20 h, read-out: MIC Klebsiella pneumoniae ATCC43816
Procedure: as §1, §2, §3

[3] = Human Microsome Stability Assay; assay type: in vitro ADME; details: 1 μM compound, 0.5 mg/mL liver microsomal protein, 1 mM NADPH, pH 7.4, 37° C., 0-30 minutes; for CLint scaled at 1 µM: human, liver microsomes, read-out: Clearance of Human microsome
Procedure: The human microsomal stability assay is used for early assessment of metabolic stability of compounds of present invention in human liver microsomes. Human liver microsomes (Cat. NO.: 452117, Corning, USA) were pre-incubated with test compound for 10 minutes at 37° C. in 100 mM potassium phosphate buffer, pH 7.4. The reactions were initiated by adding NADPH regenerating system. The final incubation mixtures contained 1 μM compound, 0.5 mg/mL liver microsomal protein, 1 mM MgCl2 and 1 mM NADPH in 100 mM potassium phosphate buffer, pH 7.4. After incubation times of 0, 3, 6, 9, 15 and 30 minutes at 37° C., 300 μL of cold acetonitrile (including internal standard) was added to 100 μL incubation mixture to terminate the reaction. Following precipitation and centrifugation, the amount of compound remaining in the samples were determined by LC-MS/MS. Controls of no NADPH regenerating system at zero and 30 minutes were also prepared and analyzed.

| Structure (SMILES) | MIC [1] [µg/mL] | MIC [2] [µg/mL] | CLint scaled at 1 µM [3] [mL/min/kg] | Clearance of Human microsome [3] [mL/min/kg] |
| --- | --- | --- | --- | --- |
| O=C1O[C@H](CO)[C@@H]2COc3cc(S(=O)(=O)N4CCN(c5cc(C(F)(F)C6CCNCC6)cc(Cl)n5)CC4)ccc3N12 [Example 029, (3S,3aS)-7-[4-[6-chloro-4-[difluoro(4-piperidyl)methyl]-2-pyridyl]piperazin-1-yl]sulfonyl-3-(hydroxymethyl)-3a,4-dihydro-3H-oxazolo[4,3-c][1,4]benzoxazin-1-one] | 1.1 (≈ 1.79 µM) | 1.14 (≈ 1.85 µM) | 11.6 |  |
| NC[C@H]1OC(=O)N2c3ccc(S(=O)(=O)N4CCN(c5cc(C(F)(F)F)cc(Cl)n5)CC4)cc3OC[C@@H]12 (relative stereo) [Example 007] | 0.46 (≈ 0.84 µM) | 0.91 (≈ 1.66 µM) | 9.6 |  |
| NCCCNC(=O)[C@H]1CC[C@H](C(F)(F)c2cc(Cl)nc(N3CCN(S(=O)(=O)c4ccc5c(c4)OCC4C(N)CC(=O)N54)CC3)c2)CC1 (stereo partly drawn) [Example 045, 4-[[2-[4-[(3-Amino-1-oxo-2,3,3a,4-tetrahydropyrrolo[2,1-c][1,4]benzoxazin-7-yl)sulfonyl]piperazin-1-yl]-6-chloro-4-pyridyl]-difluoro-methyl]-N-(3-aminopropyl)cyclohexanecarboxamide] | 0.63 (≈ 0.905 µM) | 0.63 (≈ 0.905 µM) | 8.9 |  |
| NCC(=O)N1CCC(C(F)(F)c2cc(Cl)nc(N3CCN(S(=O)(=O)c4ccc5c(c4)OC[C@@H]4[C@H](CO)OC(=O)N54)CC3)c2)CC1 [Example 053, (3R,3aR)-7-[4-[4-[[1-(2-aminoacetyl)-4-piperidyl]-difluoro-methyl]-6-chloro-2-pyridyl]piperazin-1-yl]sulfonyl-3-(hydroxymethyl)-3a,4-dihydro-3H-oxazolo[4,3-c][1,4]benzoxazin-1-one] | 0.61 (≈ 0.909 µM) | 0.61 (≈ 0.909 µM) | 12.2 |  |
| NCC(=O)NCC(=O)N1CCC(C(F)(F)c2cc(Cl)nc(N3CCN(S(=O)(=O)c4ccc5c(c4)OC[C@@H]4[C@H](CO)OC(=O)N54)CC3)c2)CC1 [Example 057, N-[2-[4-[[2-[4-[[(3R,3aR)-3-(hydroxymethyl)-1-oxo-3a,4-dihydro-3H-oxazolo[4,3-c][1,4]benzoxazin-7-yl]sulfonyl]piperazin-1-yl]-6-chloro-4-pyridyl]-difluoro-methyl]-1-piperidyl]-2-oxo-ethyl]-2-amino-acetamide] | 0.66 (≈ 0.906 µM) | 0.66 (≈ 0.906 µM) | 11.3 |  |
| O=C1O[C@@H](CO)[C@H]2COc3cc(S(=O)(=O)N4CCN(c5cc(C(F)(F)C6C7CNCC76)cc(Cl)n5)CC4)ccc3N12 (stereo partly drawn) [Example 034, (3R,3aR)-7-[4-[4-[3-azabicyclo[3.1.0]hexan-6-yl(difluoro)methyl]-6-chloro-2-pyridyl]piperazin-1-yl]sulfonyl-3-(hydroxymethyl)-3a,4-dihydro-3H-oxazolo[4,3-c][1,4]benzoxazin-1-one] | 0.28 (≈ 0.457 µM) | 0.57 (≈ 0.931 µM) | 12.7 |  |
| NC1CCC(Oc2cc(Cl)nc(N3CCN(S(=O)(=O)c4ccc5c(c4)OCC4C(N)CC(=O)N54)CC3)c2)CC1 (stereo not drawn) [Example 043, 3-Amino-7-[4-[4-(4-aminocyclohexoxy)-6-chloro-2-pyridyl]piperazin-1-yl]sulfonyl-2,3,3a,4-tetrahydropyrrolo[2,1-c][1,4]benzoxazin-1-one] | 4.3 (≈ 7.45 µM) | 8.64 (≈ 15 µM) |  | 6.2 |
| NCCCN(CCCN)C(=O)[C@H]1CC[C@H](C(F)(F)c2cc(Cl)nc(N3CCN(S(=O)(=O)c4ccc5c(c4)OC[C@H]4[C@H](CO)OC(=O)N54)CC3)c2)CC1 [Example 048, 4-[[2-[4-[[(3R,3aS)-3-(hydroxymethyl)-1-oxo-3a,4-dihydro-3H-oxazolo[4,3-c][1,4]benzoxazin-7-yl]sulfonyl]piperazin-1-yl]-6-chloro-4-pyridyl]-difluoro-methyl]-N,N-bis(3-aminopropyl)cyclohexanecarboxamide] | 0.64 (≈ 0.831 µM) | 0.64 (≈ 0.831 µM) | 12.9 |  |
| NC1CCC(Oc2cc(Cl)nc(N3CCN(S(=O)(=O)c4ccc5c(c4)OC[C@@H]4[C@H](CO)OC(=O)N54)CC3)c2)CC1 (stereo partly drawn) [Example 042, (3R,3aR)-7-[4-[4-(4-aminocyclohexoxy)-6-chloro-2-pyridyl]piperazin-1-yl]sulfonyl-3-(hydroxymethyl)-3a,4-dihydro-3H-oxazolo[4,3-c][1,4]benzoxazin-1-one] | 2.2 (≈ 3.7 µM) | 2.21 (≈ 3.72 µM) | 6.7 |  |
| NC(=O)C[N+]1(CCNC(=O)[C@H]2CC[C@H](C(F)(F)c3cc(Cl)nc(N4CCN(S(=O)(=O)c5ccc6c(c5)OC[C@@H]5[C@H](CO)OC(=O)N65)CC4)c3)CC2)CCCC1.[Cl-] [Example 063, 4-[[2-[4-[[(3R,3aR)-3-(hydroxymethyl)-1-oxo-3a,4-dihydro-3H-oxazolo[4,3-c][1,4]benzoxazin-7-yl]sulfonyl]piperazin-1-yl]-6-chloro-4-pyridyl]-difluoro-methyl]-N-[2-[1-(2-amino-2-oxo-ethyl)pyrrolidin-1-ium-1-yl]ethyl]cyclohexanecarboxamide; chloride] | 2 | 2.01 | 10.2 |  |
| Cc1cc(C(F)(F)F)nc(N2CCN(S(=O)(=O)c3ccc4c(c3)OC[C@H]3[C@@H](CN5CC(N)C5)OC(=O)N43)CC2)n1 [Example 025, (3R,3aS)-3-[(3-aminoazetidin-1-yl)methyl]-7-[4-[4-methyl-6-(trifluoromethyl)pyrimidin-2-yl]piperazin-1-yl]sulfonyl-3a,4-dihydro-3H-oxazolo[4,3-c][1,4]benzoxazin-1-one] | 0.91 (≈ 1.56 µM) | 1.82 (≈ 3.12 µM) | 12.2 |  |
| NCCC(=O)NC1CCC(Oc2cc(Cl)nc(N3CCN(S(=O)(=O)c4ccc5c(c4)OC[C@H]4[C@H](CO)OC(=O)N54)CC3)c2)CC1 (stereo partly drawn) [Example 051, N-[4-[[2-[4-[[(3R,3aS)-3-(hydroxymethyl)-1-oxo-3a,4-dihydro-3H-oxazolo[4,3-c][1,4]benzoxazin-7-yl]sulfonyl]piperazin-1-yl]-6-chloro-4-pyridyl]oxy]cyclohexyl]-3-amino-propanamide] | 3.7 (≈ 5.56 µM) | 3.65 (≈ 5.49 µM) | 13.1 |  |
| NC[C@H]1OC(=O)N2c3ccc(S(=O)(=O)N4CCN(c5cc(C(F)(F)C6CCCNC6)cc(Cl)n5)CC4)cc3OC[C@H]12 (relative stereo) [Example 009] | 0.66 (≈ 1.08 µM) | 0.66 (≈ 1.08 µM) |  | 6.2 |
| NCCCNC(=O)[C@H]1CC[C@H](C(F)(F)c2cc(Cl)nc(N3CCN(S(=O)(=O)c4ccc5c(c4)OC[C@H]4[C@H](CO)OC(=O)N54)CC3)c2)CC1 [Example 049, 4-[[2-[4-[[(3R,3aS)-3-(hydroxymethyl)-1-oxo-3a,4-dihydro-3H-oxazolo[4,3-c][1,4]benzoxazin-7-yl]sulfonyl]piperazin-1-yl]-6-chloro-4-pyridyl]-difluoro-methyl]-N-(3-aminopropyl)cyclohexanecarboxamide] | 0.3 (≈ 0.421 µM) | 0.29 (≈ 0.407 µM) |  | 6.2 |
| O=C1O[C@@H](CO)[C@H]2COc3cc(S(=O)(=O)N4CCN(c5cc(C(F)(F)C6CC7(CNC7)C6)cc(Cl)n5)CC4)ccc3N12 [Example 039, (3R,3aR)-7-[4-[4-[2-azaspiro[3.3]heptan-6-yl(difluoro)methyl]-6-chloro-2-pyridyl]piperazin-1-yl]sulfonyl-3-(hydroxymethyl)-3a,4-dihydro-3H-oxazolo[4,3-c][1,4]benzoxazin-1-one] | 0.87 (≈ 1.39 µM) | 1.16 (≈ 1.85 µM) |  | 6.2 |
| C[N@+]1(CC(N)=O)CCC[C@H]1C(=O)N[C@H]1CC[C@H](C(F)(F)c2cc(Cl)nc(N3CCN(S(=O)(=O)c4ccc5c(c4)OC[C@@H]4[C@H](CN)OC(=O)N54)CC3)c2)CC1 [Example 061, (1R,2S)—N-[4-[[2-[4-[[(3S,3aR)-3-(aminomethyl)-1-oxo-3a,4-dihydro-3H-oxazolo[4,3-c][1,4]benzoxazin-7-yl]sulfonyl]piperazin-1-yl]-6-chloro-4-pyridyl]-difluoro-methyl]cyclohexyl]-1-(2-amino-2-oxo-ethyl)-1-methyl-pyrrolidin-1-ium-2-carboxamide;chloride] | 0.68 | 0.34 |  | 6.2 |
